Laboratory results taken from patent US12492181B2, “Gem-disubstituted piperidine melanocortin subtype-2 receptor (MC2R) antagonists and uses thereof” (Crinetics Pharmaceuticals, Inc., priority 2019, dated 2025).

Molecular target: T1, hMC2 receptor (crude hMC2R membranes from CRE-bla-CHO-K1 cells stably expressing hMC2 receptor and hMRAP accessory protein) (Homo sapiens, UniProt Q01718)
T1 construct: crude membrane fractions
Test: hMC2 membrane binding assay ([125I]ACTH (1-39) Tyr23, SPA)
Settings: displacement of 0.2 nM [125I]ACTH (1-39) Tyr23 from hMC2R membranes, 1.5 hours at room temperature; read-out: MC2R binding potency
Procedure, shortened: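 Ki values come from non-linear regression of SPA scintillation counts, with compounds displacing [125I]ACTH(1-39) Tyr23. Membranes come from CRE-bla-CHO-K1 cells stably expressing hMC2 receptor together with hMRAP. They are preincubated with WGA-coated PVT SPA beads in 50 mM HEPES pH 7.4 with 0.20% BSA, Mg2+, Ca2+ and protease inhibitors.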

T1 sequence (Q01718 whole entry): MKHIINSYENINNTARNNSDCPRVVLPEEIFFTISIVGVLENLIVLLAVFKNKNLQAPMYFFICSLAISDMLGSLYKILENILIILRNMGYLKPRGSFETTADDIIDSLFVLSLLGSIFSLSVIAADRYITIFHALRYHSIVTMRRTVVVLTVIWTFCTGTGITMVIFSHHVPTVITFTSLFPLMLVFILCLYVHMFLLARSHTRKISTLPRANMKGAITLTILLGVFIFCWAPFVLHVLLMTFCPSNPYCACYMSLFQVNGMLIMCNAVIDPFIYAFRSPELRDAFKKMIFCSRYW
T1 sequence (Q8TCY5 whole entry partner): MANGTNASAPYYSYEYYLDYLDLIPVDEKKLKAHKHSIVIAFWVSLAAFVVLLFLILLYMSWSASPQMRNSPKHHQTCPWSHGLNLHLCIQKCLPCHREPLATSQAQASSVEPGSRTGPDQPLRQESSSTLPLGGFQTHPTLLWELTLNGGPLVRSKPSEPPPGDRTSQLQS

## C[C@@H](CN(C)C)NC(=O)C1(c2ccc(-c3cccn3C)nc2)CCN(c2ccc(C(F)(F)F)cc2C#N)CC1 [Compound 1-261, 1-[2-cyano-4-(trifluoromethyl)phenyl]-N-[(2S)-1-(dimethylamino)propan-2-yl]-4-[6-(1-methyl-1H-pyrrol-2-yl)pyridin-3-yl]piperidine-4-carboxamide]
  Ki: < 10 nM

## CN1CC[C@@H](NC(=O)C2(c3ccc(-c4ccccc4CO)nc3)CCN(c3ccc(C(F)(F)F)cc3C#N)CC2)C1 [Compound 1-55, 1-[2-cyano-4-(trifluoromethyl)phenyl]-4-{6-[2-(hydroxymethyl)phenyl]pyridin-3-yl}-N-[(3R)-1-methylpyrrolidin-3-yl]piperidine-4-carboxamide]
  Ki: < 10 nM

## COc1ccccc1-c1ncc(C2(C(=O)NCCN(C)C)CCN(c3ccc(C(F)(F)F)cc3C#N)CC2)cc1F [Compound 1-198, 1-[2-cyano-4-(trifluoromethyl)phenyl]-N-[2-(dimethylamino)ethyl]-4-[5-fluoro-6-(2-methoxyphenyl)pyridin-3-yl]piperidine-4-carboxamide]
  Ki: < 10 nM

## CN1CC[C@@H](NC(=O)C2(c3ccc(-c4cc(F)ccc4F)nc3)CCN(c3ccc(C(F)(F)F)cc3C#N)CC2)C1 [Compound 1-68, 1-[2-cyano-4-(trifluoromethyl)phenyl]-4-[6-(2,5-difluorophenyl)pyridin-3-yl]-N-[(3R)-1-methylpyrrolidin-3-yl]piperidine-4-carboxamide]
  Ki: < 10 nM

## COc1ccccc1-c1ccc(C2(C(=O)NC[C@@H]3C[C@H](F)CN3C)CCN(c3ccc(C(F)(F)F)cc3C#N)CC2)cn1 [Compound 1-249, 1-[2-cyano-4-(trifluoromethyl)phenyl]-N-{[(2S,4S)-4-fluoro-1-methylpyrrolidin-2-yl]methyl}-4-[6-(2-methoxyphenyl)pyridin-3-yl]piperidine-4-carboxamide]
  Ki: < 10 nM

## COc1ccccc1-c1ccc(C2(NC(=O)[C@@H]3CCN(C)C3)CCN(c3ccc(C(F)(F)F)cc3C#N)CC2)cn1 [Compound 2-60, (3R)—N-{1-[2-cyano-4-(trifluoromethyl)phenyl]-4-[6-(2-methoxyphenyl)pyridin-3-yl]piperidin-4-yl}-1-methylpyrrolidine-3-carboxamide]
  Ki: < 10 nM

## CNCCNC(=O)C1(c2ccc(-c3ccccc3OC)nc2)CCN(c2ccc(C(F)(F)F)cc2F)CC1 [Compound 1-256, 1-[2-fluoro-4-(trifluoromethyl)phenyl]-4-[6-(2-methoxyphenyl)pyridin-3-yl]-N-[2-(methylamino)ethyl]piperidine-4-carboxamide]
  Ki: < 10 nM

## CCOc1ncccc1-c1ccc(C2(NC(=O)C3CN(C)C3)CCN(c3ccc(Cl)cc3C#N)CC2)cn1 [Compound 2-37, N-[1-(4-chloro-2-cyanophenyl)-4-{2′-ethoxy-[2,3′-bipyridin]-5-yl}piperidin-4-yl]-1-methylazetidine-3-carboxamide]
  Ki: < 10 nM

## CCOc1ncccc1-c1ccc(C2(C(=O)NCCCN)CCN(c3ccc(C(F)(F)F)cc3C#N)CC2)cc1 [Compound 1-5, N-(3-aminopropyl)-1-[2-cyano-4-(trifluoromethyl)phenyl]-4-[4-(2-ethoxypyridin-3-yl)phenyl]piperidine-4-carboxamide]
  Ki: 10 to 100 nM

## C[C@@H](CN(C)C)NC(=O)C1(c2cnc(-c3cccn3C)c(F)c2)CCN(c2ccc(C(F)(F)F)cc2C#N)CC1 [Compound 1-324, 1-[2-cyano-4-(trifluoromethyl)phenyl]-N-[(2S)-1-(dimethylamino)propan-2-yl]-4-[5-fluoro-6-(1-methyl-1H-pyrrol-2-yl)pyridin-3-yl]piperidine-4-carboxamide]
  Ki: < 10 nM

## CCOc1ncccc1-c1ncc(C2(C(=O)N[C@@H](C)CN(C)C)CCN(c3ccc(C(F)(F)F)cc3F)CC2)cc1F [Compound 1-312, N-[(2S)-1-(dimethylamino)propan-2-yl]-4-{2′-ethoxy-3-fluoro-[2,3′-bipyridin]-5-yl}-1-[2-fluoro-4-(trifluoromethyl)phenyl]piperidine-4-carboxamide]
  Ki: < 10 nM

## CN1CC[C@@H](NC(=O)C2(c3ccc(-c4ccccc4C4CC4)nc3)CCN(c3ccc(C(F)(F)F)cc3C#N)CC2)C1 [Compound 1-113, 1-[2-cyano-4-(trifluoromethyl)phenyl]-4-[6-(2-cyclopropylphenyl)pyridin-3-yl]-N-[(3R)-1-methylpyrrolidin-3-yl]piperidine-4-carboxamide]
  Ki: < 10 nM

## COc1ccccc1-c1ncc(C2(NC(=O)N[C@H]3CCN(C)C3)CCN(c3ccc(C(F)(F)F)cc3C#N)CC2)cc1F [Compound 2-51, 1-{1-[2-cyano-4-(trifluoromethyl)phenyl]-4-[5-fluoro-6-(2-methoxyphenyl)pyridin-3-yl]piperidin-4-yl}-3-[(3S)-1-methylpyrrolidin-3-yl]urea]
  Ki: < 10 nM

## CN1CC[C@H](OC(=O)NC2(c3ccc(-c4cccn4C)nc3)CCN(c3ccc(C(F)(F)F)cc3C#N)CC2)C1 [Compound 2-42, (3S)-1-methylpyrrolidin-3-yl N-{1-[2-cyano-4-(trifluoromethyl)phenyl]-4-[6-(1-methyl-1H-pyrrol-2-yl)pyridin-3-yl]piperidin-4-yl}carbamate]
  Ki: < 10 nM

## CCOc1ncccc1-c1ccc(C2(NC(=O)CCN)CCN(c3ccc(C(F)(F)F)cc3C#N)CC2)cn1 [Compound 2-4, 3-amino-N-{1-[2-cyano-4-(trifluoromethyl)phenyl]-4-{2′-ethoxy-[2,3′-bipyridin]-5-yl}piperidin-4-yl}propanamide]
  Ki: < 10 nM

## CCOc1ncccc1-c1ccc(C2(OCCN(C)C)CCN(c3ccc(C(F)(F)F)cc3C#N)CC2)cc1 [Compound 2-1, 2-{4-[2-(dimethylamino)ethoxy]-4-[4-(2-ethoxypyridin-3-yl)phenyl]piperidin-1-yl}-5-(trifluoromethyl)benzonitrile]
  Ki: 10 to 100 nM

## CCOc1ccccc1-c1ncc(C2(C(=O)N[C@H]3CCN(C)C3)CCN(c3ccc(C(F)(F)F)cc3C#N)CC2)cc1F [Compound 1-124, 1-[2-cyano-4-(trifluoromethyl)phenyl]-4-[6-(2-ethoxyphenyl)-5-fluoropyridin-3-yl]-N-[(3S)-1-methylpyrrolidin-3-yl]piperidine-4-carboxamide]
  Ki: < 10 nM

## CCOc1ncccc1-c1ccc(C2(C(=O)N[C@@H]3CCN(C)C3)CCN(c3ccc(C(F)(F)F)cc3C)CC2)cc1 [Compound 1-164, 4-[4-(2-ethoxypyridin-3-yl)phenyl]-1-[2-methyl-4-(trifluoromethyl)phenyl]-N-[(3R)-1-methylpyrrolidin-3-yl]piperidine-4-carboxamide]
  Ki: 10 to 100 nM

## CN1CC[C@@H](NC(=O)C2(c3ccc(-c4cccn4C)nc3)CCN(c3ccc(C(F)(F)F)cc3C#N)CC2)C1 [Compound 1-88, 1-[2-cyano-4-(trifluoromethyl)phenyl]-4-[6-(1-methyl-1H-pyrrol-2-yl)pyridin-3-yl]-N-[(3R)-1-methylpyrrolidin-3-yl]piperidine-4-carboxamide]
  Ki: < 10 nM

## CN1CC[C@H]1CNC(=O)C1(c2ccc(-c3cccn3C)nc2)CCN(c2ccc(C(F)(F)F)cc2C#N)CC1 [Compound 1-241, 1-[2-cyano-4-(trifluoromethyl)phenyl]-4-[6-(1-methyl-1H-pyrrol-2-yl)pyridin-3-yl]-N-{[(2S)-1-methylazetidin-2-yl]methyl}piperidine-4-carboxamide]
  Ki: < 10 nM

## CCOc1ncccc1-c1ccc(C2(NC(=O)N[C@@H]3CCN(C)C3)CCN(c3ccc(C(F)(F)F)cc3C#N)CC2)cn1 [Compound 2-19, 1-{1-[2-cyano-4-(trifluoromethyl)phenyl]-4-{2′-ethoxy-[2,3′-bipyridin]-5-yl}piperidin-4-yl}-3-[(3R)-1-methylpyrrolidin-3-yl]urea]
  Ki: < 10 nM

## CN1CC[C@@H](NC(=O)C2(c3ccc(-c4ccccc4F)nc3)CCN(c3ccc(C(F)(F)F)cc3C#N)CC2)C1 [Compound 1-74, 1-[2-cyano-4-(trifluoromethyl)phenyl]-4-[6-(2-fluorophenyl)pyridin-3-yl]-N-[(3R)-1-methylpyrrolidin-3-yl]piperidine-4-carboxamide]
  Ki: < 10 nM

## CNCCNC(=O)C1(c2ccc(-c3cccn3C)nc2)CCN(c2ccc(C(F)(F)F)cc2Cl)CC1 [Compound 1-283, 1-[2-chloro-4-(trifluoromethyl)phenyl]-4-[6-(1-methyl-1H-pyrrol-2-yl)pyridin-3-yl]-N-[2-(methylamino)ethyl]piperidine-4-carboxamide]
  Ki: < 10 nM

## CN1CC[C@H](NC(=O)C2(c3ccc(-c4cccc(F)c4C#N)nc3)CCN(c3ccc(C(F)(F)F)cc3C#N)CC2)C1 [Compound 1-148, 4-[6-(2-cyano-3-fluorophenyl)pyridin-3-yl]-1-[2-cyano-4-(trifluoromethyl)phenyl]-N-[(3S)-1-methylpyrrolidin-3-yl]piperidine-4-carboxamide]
  Ki: 10 to 100 nM

## COc1ccccc1-c1ccc(C2(C(=O)NC[C@@H]3CN(C)CCO3)CCN(c3ccc(C(F)(F)F)cc3C#N)CC2)cn1 [Compound 1-330, 1-[2-cyano-4-(trifluoromethyl)phenyl]-4-[6-(2-methoxyphenyl)pyridin-3-yl]-N-{[(2R)-4-methylmorpholin-2-yl]methyl}piperidine-4-carboxamide]
  Ki: 10 to 100 nM

## CCOC(=O)N1CC[C@H](NC(=O)C2(c3ccc(-c4cccn4C)nc3)CCN(c3ccc(C(F)(F)F)cc3C#N)CC2)C1 [Compound 1-184, ethyl (3S)-3-{1-[2-cyano-4-(trifluoromethyl)phenyl]-4-[6-(1-methyl-1H-pyrrol-2-yl)pyridin-3-yl]piperidine-4-amido}pyrrolidine-1-carboxylate]
  Ki: 100 to 1000 nM

## CCOc1ncccc1-c1ncc(C2(C(=O)N[C@@H](C)CN(C)C)CCN(c3ccc(Cl)cc3C#N)CC2)cc1F [Compound 1-325, 1-(4-chloro-2-cyanophenyl)-N-[(2S)-1-(dimethylamino)propan-2-yl]-4-{2′-ethoxy-3-fluoro-[2,3′-bipyridin]-5-yl}piperidine-4-carboxamide]
  Ki: < 10 nM
